Read-outs that look alike come from different tables or passages of the source.
Legend:
[1] = biological target: Recombinant human PKC-theta (His-tagged 362-706) (Homo sapiens (Human), UniProt Q04759); experiment: PKC-theta inhibition assay (HTRF KinEASE kit); type: biochemical; conditions: ATP 6.5 μM
In short: (§1)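 HTRF KinEASE kinase assay, buffer supplemented with 10 mM MgCl2, 1 mM DTT, 0.1% Tween 20; enzyme at 10 ng/ml preincubated 30 min on ice with compound. PKC-theta: 525 nM STK substrate, 6.5 μM ATP, 30 min at 25° C; PKC-delta: 243 nM substrate, 5.7 μM ATP, 20 min. IC50 from 4-parameter fit of 10-dose series.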

[2] = tested on: IL-2 secretion by human effector memory T cells (TEM); experiment: Effector memory T cells IL-2 release assay; type: cell-based; conditions: T-cell, human CD4+ TEM cells, CD3/CD28 bead stimulation, 24 h
In short: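 Human CD4+ effector memory T cells (negatively sorted from donor PBMC), 5,000 per well, stimulated with CD3/CD28 beads and 10 semi-log compound doses for 24 h at 37° C, 0.1% DMSO. Supernatant IL-2 measured by HTRF; IC50 from 4-parameter logistic fit; viability checked by flow cytometry.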

[3] = biological target: Recombinant human PKC-delta (His-tagged 345-676) (Homo sapiens (Human), UniProt Q05655); experiment: PKC-delta inhibition assay (HTRF KinEASE kit), PKC-theta/PKC-delta selectivity; type: biochemical; conditions: ratio; for PKC-theta/PKC-delta selectivity: PKC-theta over PKC-delta, HTRF assays; for PKC-theta/PKC-delta selectivity (binned): binned A to G
In short: as §1

[4] = binned A to H, read-out: PKC-theta HTRF pIC50 (binned) (converted)
[5] = binned A to G, read-out: PKC-theta IL2 pIC50 (binned) (converted)
[6] = read-out: PKC-theta IL2 pIC50 (converted)
[7] = read-out: PKC-theta HTRF pIC50 (converted)

Chain of Recombinant human PKC-theta (His-tagged 362-706) (Q04759 362-706): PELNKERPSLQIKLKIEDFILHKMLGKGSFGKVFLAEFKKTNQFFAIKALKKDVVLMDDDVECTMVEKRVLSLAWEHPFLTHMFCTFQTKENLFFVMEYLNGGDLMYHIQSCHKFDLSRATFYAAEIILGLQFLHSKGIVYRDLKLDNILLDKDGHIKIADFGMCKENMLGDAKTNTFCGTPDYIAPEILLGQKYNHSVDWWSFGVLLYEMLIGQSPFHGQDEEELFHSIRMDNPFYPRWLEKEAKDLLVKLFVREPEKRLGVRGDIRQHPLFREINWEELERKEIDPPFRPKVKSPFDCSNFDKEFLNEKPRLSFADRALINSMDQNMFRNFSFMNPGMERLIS
Chain of Recombinant human PKC-delta (His-tagged 345-676) (Q05655 345-676): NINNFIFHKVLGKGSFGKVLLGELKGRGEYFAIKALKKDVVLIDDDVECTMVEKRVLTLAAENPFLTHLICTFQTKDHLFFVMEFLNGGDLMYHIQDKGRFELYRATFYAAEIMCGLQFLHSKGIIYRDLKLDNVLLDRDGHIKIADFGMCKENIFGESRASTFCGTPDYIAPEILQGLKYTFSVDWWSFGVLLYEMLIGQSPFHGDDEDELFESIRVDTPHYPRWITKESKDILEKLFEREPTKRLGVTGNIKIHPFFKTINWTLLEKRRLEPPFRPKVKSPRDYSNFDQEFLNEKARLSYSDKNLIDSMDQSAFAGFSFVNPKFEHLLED

What does the source list for `O=c1[nH]c2nccc(-c3cnn(C4CCNCC4)c3)c2[nH]1` [Example 1]?
PKC-theta HTRF pIC50 [1]: 6.1; IC50 [1, 4]: 316 to 1000 nM; IC50 [2, 5]: > 1000 nM; IC50 [2, 6]: 3160 nM; PKC-theta/PKC-delta selectivity [3]: 1; PKC-theta/PKC-delta selectivity (binned) [3]: G (G means a ratio of between 0 and 1)

For `CCC1(C)C(=O)Nc2nccc(-c3nn([C@H]4CCNC4)c4ccccc34)c21` (stereo partly drawn) [Example 53], which “PKC-theta HTRF pIC50” value [1] is on record?
The value was 8.3.

What about the IC50 [1, 4] of the same molecule?
Its IC50 is 3.16 to 10 nM.

And the IC50 [2, 5]?
The IC50 was 31.6 to 100 nM.

And the IC50 [2, 6]?
The IC50 was 100 nM.

And the PKC-theta/PKC-delta selectivity [3]?
Its PKC-theta/PKC-delta selectivity is 13.

What about the “PKC-theta/PKC-delta selectivity (binned)” value [3] of the same molecule?
Its value is “D (D means a ratio of between 10 and 20)”.

For `CC[C@@]1(C)C(=O)Nc2nccc(-c3nn([C@H]4CCNC[C@H]4F)c4cc(F)ccc34)c21` (single isomer, unassigned) [Example 104], which IC50 [1, 4] is on record?
The IC50 was at most 1 nM.

And the IC50 [1, 7]?
Its IC50 is 0.794 nM.

And the IC50 [2, 5]?
The IC50 was 10 to 31.6 nM.

And the IC50 [2, 6]?
Its IC50 is 12.6 nM.

And the PKC-theta/PKC-delta selectivity [3]?
Its PKC-theta/PKC-delta selectivity is 17.

What about the “PKC-theta/PKC-delta selectivity (binned)” value [3] of the same molecule?
The value was “D (D means a ratio of between 10 and 20)”.

`CO[C@@]1(C)C(=O)Nc2nccc(-c3nn([C@H]4CCNC[C@H]4F)c4ccccc34)c21` (single isomer, unassigned) [Example 93] was tested. Which IC50 [1, 4] did it give?
The IC50 was 3.16 to 10 nM.

And the IC50 [1, 7]?
The IC50 was 3.98 nM.

What about the IC50 [2, 5] of the same molecule?
The IC50 was 31.6 to 100 nM.

And the IC50 [2, 6]?
The IC50 was 50.1 nM.

And the PKC-theta/PKC-delta selectivity [3]?
Its PKC-theta/PKC-delta selectivity is 10.

And the “PKC-theta/PKC-delta selectivity (binned)” value [3]?
Its value is “E (E means a ratio of between 5 and 10)”.

With `C[C@@]1(O)C(=O)Nc2nccc(-c3nn(CC4(F)CCNCC4)c4ccccc34)c21` (single isomer, unassigned) [Example 47] as the molecule, how does the IC50 [1, 4] read?
The IC50 was at most 1 nM.

What about the IC50 [1, 7] of the same molecule?
Its IC50 is 0.631 nM.

What about the IC50 [2, 5] of the same molecule?
The IC50 was 10 to 31.6 nM.

And the IC50 [2, 6]?
Its IC50 is 25.1 nM.

And the PKC-theta/PKC-delta selectivity [3]?
Its PKC-theta/PKC-delta selectivity is 12.

What about the “PKC-theta/PKC-delta selectivity (binned)” value [3] of the same molecule?
Its value is “D (D means a ratio of between 10 and 20)”.

With `CC[C@]1(C)C(=O)Nc2nccc(-c3nn([C@@H]4CCNC[C@@H]4F)c4ccccc34)c21` (single isomer, unassigned) [Example 106] as the molecule, how does the IC50 [1, 4] read?
The IC50 was at most 1 nM.

And the IC50 [1, 7]?
Its IC50 is 0.794 nM.

What about the IC50 [2, 5] of the same molecule?
The IC50 was 10 to 31.6 nM.

What about the IC50 [2, 6] of the same molecule?
The IC50 was 12.6 nM.

What about the PKC-theta/PKC-delta selectivity [3] of the same molecule?
Its PKC-theta/PKC-delta selectivity is 15.

What about the “PKC-theta/PKC-delta selectivity (binned)” value [3] of the same molecule?
The value was “D (D means a ratio of between 10 and 20)”.

`CC1(C)C(=O)Nc2nccc(-c3nn(CC4(F)CCCNC4)c4ccccc34)c21` (stereo not drawn) [Example 44] was tested. Which “PKC-theta HTRF pIC50” value [1] did it give?
Its value is 7.5.

What about the IC50 [1, 4] of the same molecule?
Its IC50 is 31.6 to 100 nM.

And the IC50 [2, 5]?
Its IC50 is 100 to 316 nM.

And the IC50 [2, 6]?
Its IC50 is 251 nM.

And the PKC-theta/PKC-delta selectivity [3]?
The PKC-theta/PKC-delta selectivity was 14.

What about the “PKC-theta/PKC-delta selectivity (binned)” value [3] of the same molecule?
Its value is “D (D means a ratio of between 10 and 20)”.

Which IC50 [1, 4] does the source give for `C[C@@]1(O)C(=O)Nc2nccc(-c3nn(C4(CC#N)COC4)c4ccccc34)c21` (single isomer, unassigned) [Example 48] here?
The IC50 was 100 to 316 nM.

What about the IC50 [1, 7] of the same molecule?
Its IC50 is 316 nM.

And the IC50 [2, 5]?
The IC50 was 316 to 1000 nM.

And the IC50 [2, 6]?
The IC50 was 794 nM.

What about the PKC-theta/PKC-delta selectivity [3] of the same molecule?
Its PKC-theta/PKC-delta selectivity is 33.

What about the “PKC-theta/PKC-delta selectivity (binned)” value [3] of the same molecule?
The value was “B (B means a ratio of between 30 and 50)”.

With `CC[C@@]1(C)C(=O)Nc2nccc(-c3nn([C@@H]4CCNC[C@@H]4F)c4cc(F)ccc34)c21` (single isomer, unassigned) [Example 103] as the molecule, how does the IC50 [1, 4] read?
The IC50 was 1 to 3.16 nM.

What about the IC50 [1, 7] of the same molecule?
Its IC50 is 2.51 nM.

And the IC50 [2, 5]?
Its IC50 is 31.6 to 100 nM.

And the IC50 [2, 6]?
The IC50 was 63.1 nM.

And the PKC-theta/PKC-delta selectivity [3]?
The PKC-theta/PKC-delta selectivity was 22.

What about the “PKC-theta/PKC-delta selectivity (binned)” value [3] of the same molecule?
Its value is “C (C means a ratio of between 20 and 30)”.

Which “PKC-theta HTRF pIC50” value [1] does the source give for `CC1(C)C(=O)Nc2nccc(-c3nn([C@H]4CCNC4)c4ccc(F)cc34)c21` [Example 73] here?
The value was 7.5.

What about the IC50 [1, 4] of the same molecule?
Its IC50 is 10 to 31.6 nM.

And the IC50 [2, 5]?
Its IC50 is 316 to 1000 nM.

And the IC50 [2, 6]?
Its IC50 is 631 nM.

What about the PKC-theta/PKC-delta selectivity [3] of the same molecule?
The PKC-theta/PKC-delta selectivity was 10.

And the “PKC-theta/PKC-delta selectivity (binned)” value [3]?
Its value is “D (D means a ratio of between 10 and 20)”.

How did the IC50 [1, 4] turn out when `C[C@@]1(O)C(=O)Nc2nccc(-c3nn([C@@H]4CCNC[C@@H]4F)c4ccccc34)c21` (single isomer, unassigned) [Example 50] was run?
Its IC50 is at most 1 nM.

What about the IC50 [1, 7] of the same molecule?
The IC50 was 0.794 nM.

What about the IC50 [2, 5] of the same molecule?
The IC50 was 10 to 31.6 nM.

And the IC50 [2, 6]?
The IC50 was 20 nM.

What about the PKC-theta/PKC-delta selectivity [3] of the same molecule?
Its PKC-theta/PKC-delta selectivity is 11.

What about the “PKC-theta/PKC-delta selectivity (binned)” value [3] of the same molecule?
Its value is “D (D means a ratio of between 10 and 20)”.

With `CC1(C)C(=O)Nc2nccc(-c3nn(C[C@@]4(C)COCCN4)c4ccccc34)c21` (single isomer, unassigned) [Example 31] as the molecule, how does the “PKC-theta HTRF pIC50” value [1] read?
Its value is 8.9.

What about the IC50 [1, 4] of the same molecule?
Its IC50 is 1 to 3.16 nM.

And the IC50 [2, 5]?
The IC50 was 31.6 to 100 nM.

What about the IC50 [2, 6] of the same molecule?
The IC50 was 39.8 nM.

And the PKC-theta/PKC-delta selectivity [3]?
Its PKC-theta/PKC-delta selectivity is 22.

And the “PKC-theta/PKC-delta selectivity (binned)” value [3]?
The value was “C (C means a ratio of between 20 and 30)”.

What does the source list for `CC1(C)C(=O)Nc2nccc(-c3ccn([C@H]4CC[C@H](N)CC4)n3)c21` [Example 14]?
PKC-theta HTRF pIC50 [1]: 8.5; IC50 [1, 4]: 3.16 to 10 nM; IC50 [2, 5]: 31.6 to 100 nM; IC50 [2, 6]: 50.1 nM; PKC-theta/PKC-delta selectivity [3]: 3; PKC-theta/PKC-delta selectivity (binned) [3]: F (F means a ratio of between 1 and 5)

From US20240239794A1, “PKC-Theta Modulators” (Exscientia AI Limited, priority 2021, published 2024)
